Laboratory results from patent publication US12319913B2, “5-halouracil-modified microRNAs and their use in the treatment of cancer” (The Research Foundation for The State University of New York, priority 2018, dated 2025).
[5FU] = 5-fluorouracil base replacing uracil

What was measured:
[1] = system: Panc-1 pancreatic cancer cells; assay: Cell proliferation, Panc-1; format: cell-based, human; conditions: PANC-1; 50 nM, 25 nM, 12.5 nM, 6.25 nM, and 3.125 nM
Experimental: (§1) […] For reagent free transfection, cells were plated in 6 well plates at (1×10^5) cells per well. Twenty-four hours later 100 pmol miRNA (Control, miR-15a, Mimic-1) were diluted in Optimem (Thermo Fischer) and added to the plate. Media was changed after 24 hours. Media was supplemented with 10% fetal bovine serum (Thermo Fischer). Briefly, cells were cultured in growth media (DMEM/F12 supplemented with B27, 10 ng/mL bFGF, and 20 ng/mL EGF (Life Technologies) in ultra-low attachment flasks) for up to 6 days. The spheroid cells were maintained by collection through gentle centrifugation, dissociation to single cells and replating.
(§2) Cell proliferation assay: Twenty-four hours after transfection, cells were seeded in 96-well plates at a density of 2000 cells per well. The cell proliferation assay was performed on days 1 to 5 by incubating 10 μl WST-1 (Roche Applied Science, Mannheim, Germany) in the culture medium for 1 h and reading the absorbance at 450 and 630 nm. The cell proliferation rate was calculated by subtracting the […]. Experiments for the cell proliferation assay were performed at least three times. The O.D. was calculated by subtracting the absorbance at 630 nm from that at 450 nm. Proliferation experiments were performed three times.

[2] = system: AsPC-1 pancreatic cancer cells; assay: Cell proliferation, AsPC-1; format: cell-based, human; conditions: APSC-1; 50 nM, 25 nM, 12.5 nM, 6.25 nM, and 3.125 nM
Experimental: as §1, §2

[3] = system: A549 lung cancer cells; assay: Cell proliferation, A549; format: cell-based, human; conditions: A549, compared to negative controls
Experimental: (§3) For transfections, 1×10^5 cells were plated in six-well plates and transfected with 100 nM of control non-specific miRNA (Thermo Fischer), a modified microRNA, or exogenous native microRNA after 24 hours using Oligofectamine (Thermo Fischer) following the manufacturer's protocols. For reagent free transfection, cells were plated in 6 well plates at (1×10^5) cells per well. Twenty-four hours later 100 pmol miRNA (Control, miR-15a, Mimic-1) were diluted in Optimem (Thermo Fischer) and added to the plate. Media was changed after 24 hours. Media was supplemented with 10% fetal bovine serum (Thermo Fischer). Briefly, cells were cultured in growth media (DMEM/F12 supplemented with B27, 10 ng/mL bFGF, and 20 ng/mL EGF (Life Technologies) in ultra-low attachment flasks) for up to 6 days. The spheroid cells were maintained by collection through gentle centrifugation, dissociation to single cells and replating.
as §2

[4] = system: Hs766T pancreatic cancer cells; assay: Cell proliferation, Hs766T; format: cell-based, human; conditions: compared to negative controls
Experimental: as §3, §2

[5] = system: AGS stomach cancer cells; assay: Cell proliferation, AGS; format: cell-based, human; conditions: compared to negative controls
Experimental: as §3, §2

[6] = system: SKBR3 breast cancer cells; assay: Cell proliferation, SKBR3; format: cell-based, human; conditions: SKBR3, compared to negative controls
Experimental: as §3, §2

[7] = system: acute lymphocytic leukemia cell line (REH); assay: Cell proliferation, REH; format: cell-based, human; conditions: compared to negative controls
Experimental: as §3, §2

[8] = system: acute lymphocytic leukemia cell line (REH); assay: Cell proliferation, REH; format: cell-based, human; conditions: 50 nM, 25 nM, 12.5 nM, 6.25 nM, and 3.125 nM
[9] = system: HCT116 colon cancer cells; assay: WST-1 cell proliferation assay, HCT116; format: cell-based, human; conditions: HCT116, in words, vs controls
Experimental: For transfections, […] (Thermo Fischer) following the manufacturer's protocols. For reagent free transfection, cells were plated in 6 well plates at (1×10^5) cells per well. Twenty-four hours later 100 pmol miRNA (Control, miR-15a, Mimic-1) were diluted in Optimem (Thermo Fischer) and added to the plate. Media was changed after 24 hours. Media was supplemented with 10% fetal bovine serum (Thermo Fischer). Briefly, cells were cultured in growth media (DMEM/F12 supplemented with B27, 10 ng/mL bFGF, and 20 ng/mL EGF (Life Technologies) in ultra-low attachment flasks) for up to 6 days. The spheroid cells were maintained by collection through gentle centrifugation, dissociation to single cells and replating.
as §2

[10] = system: MDA-MB-231 triple negative breast cancer cells; assay: MTT cell proliferation, MDA-MB-231, with or without oligofectamine; format: cell-based, human; conditions: for cell proliferation without delivery vehicle (no oligofectamine): MDA-MB-231, MTT assay
Experimental: as §3
Furthermore, to test whether or not the modified microRNAs of the present disclosure can be delivered directly to cells and taken up by the cancer cells without the use of transfer agents or vehicles (i.e., oligofectamine), MDA-MB-231 triple negative breast cancer cells were transfected with miR-NC (negative control), exogenous unmodified miR-200b or miR-489, 5-FU-miR-200b or modified miR-489 by using oligofectamine or without delivery vehicle. As shown in FIGS. 17A-17B and 20A, the effects of expression of the exemplary modified miRs tested on breast cancer cell proliferation were monitored by MTT assay for 6 days upon transfection or incubation.

[11] = system: HCT116 derived colon cancer stem cells; format: cell-based; conditions: lethal dose of 5-FU at 100 μM
Experimental: as §3
miR-129 mimics eliminated chemotherapy resistant colon cancer stem cells. To determine the impact of certain exemplary modified microRNAs of the present disclosure (i.e., miR-129 mimics) on 5-FU resistant colon cancer stem cells, HCT116 derived colon cancer stem cells were treated with various concentrations of Mimic-1 or 5-FU.

Compound: CAGU^FGGU^FU^FU^FU^FACCCU^FAU^FGGU^F AG (CAGUGGUUUUACCCUAUGGUAG; RNA, [5FU] at 4, 7, 8, 9, 10, 15, 17, 20, backbone not given here) [modified miR-140 [SEQ ID NO. 16]]
- cell proliferation, dose dependence [1]: inhibited in a dose dependent manner
- cell proliferation, dose dependence [2]: inhibited in a dose dependent manner
- lung cancer cell proliferation [3]: inhibited
- pancreatic cancer cell proliferation [4]: inhibited
- gastric cancer cell proliferation [5]: inhibited
- breast cancer cell proliferation [6]: inhibited
- leukemia cancer cell proliferation [7]: inhibited
- leukemia cancer cell proliferation, dose dependence [8]: inhibited in a dose dependent manner

Compound: U^FAACACU^FGU^FCU^FGGU^FAACGAU^FGU^F (UAACACUGUCUGGUAACGAUGU; U replaced by 5-fluorouracil, chemistry not fully specified) [modified miR-200a, miR-200a in which all (7) U bases are replaced by 5-fluorouracil]
- cell proliferation, dose dependence [1]: inhibited in a dose dependent manner
- cell proliferation, dose dependence [2]: inhibited in a dose dependent manner
- lung cancer cell proliferation [3]: inhibited
- pancreatic cancer cell proliferation [4]: inhibited
- gastric cancer cell proliferation [5]: inhibited
- breast cancer cell proliferation [6]: inhibited
- leukemia cancer cell proliferation [7]: inhibited
- leukemia cancer cell proliferation, dose dependence [8]: inhibited in a dose dependent manner

Compound: U^FGU^FAACAGCAACU^FCCAU^FGU^FGGA (UGUAACAGCAACUCCAUGUGGA; RNA, [5FU] at 1, 3, 13, 17, 19, backbone not given here) [modified miR-194]
- cell proliferation, dose dependence [1]: inhibited in a dose dependent manner
- cell proliferation, dose dependence [2]: inhibited in a dose dependent manner
- lung cancer cell proliferation [3]: inhibited
- pancreatic cancer cell proliferation [4]: inhibited
- gastric cancer cell proliferation [5]: inhibited
- breast cancer cell proliferation [6]: inhibited
- leukemia cancer cell proliferation [7]: inhibited
- leukemia cancer cell proliferation, dose dependence [8]: inhibited in a dose dependent manner

Compound: U^FGGCAGU^FGU^FCU^FU^FAGCU^FGGU^FU^FGU^F (UGGCAGUGUCUUAGCUGGUUGU; all U replaced by 5-fluorouracil, chemistry not fully specified) [modified miR-34, miR-34 in which all (9) U bases are replaced by 5-fluorouracil]
- cell proliferation, dose dependence [1]: inhibited in a dose dependent manner
- cell proliferation, dose dependence [2]: inhibited in a dose dependent manner
- lung cancer cell proliferation [3]: inhibited
- pancreatic cancer cell proliferation [4]: inhibited
- gastric cancer cell proliferation [5]: inhibited
- breast cancer cell proliferation [6]: inhibited
- leukemia cancer cell proliferation [7]: inhibited
- leukemia cancer cell proliferation, dose dependence [8]: inhibited in a dose dependent manner

Compound: CU^FGACCU^FAU^FGAAU^FU^FGACAGCC (CUGACCUAUGAAUUGACAGCC; RNA, [5FU] at 2, 7, 9, 13, 14, backbone not given here) [modified miR-192]
- inhibition of colon cancer cell proliferation [9]: increased ability to inhibit colorectal cancer cell proliferation
- cell proliferation, dose dependence [1]: inhibited in a dose dependent manner
- cell proliferation, dose dependence [2]: inhibited in a dose dependent manner
- lung cancer cell proliferation [3]: inhibited
- pancreatic cancer cell proliferation [4]: inhibited
- gastric cancer cell proliferation [5]: inhibited
- breast cancer cell proliferation [6]: inhibited
- leukemia cancer cell proliferation [7]: inhibited
- leukemia cancer cell proliferation, dose dependence [8]: inhibited in a dose dependent manner

Compound: UAAUACUGCCUGGUAAUGAUGA (chemistry not fully specified; listed as Homo sapiens) [native miR-200b, 21]
- cell proliferation without delivery vehicle (no oligofectamine) [10]: had no effects on proliferation
- cell proliferation in the presence of oligofectamine ([10]; MDA-MB-231, MTT assay for 6 days, vs miR-NC): reduced the rate of cell proliferation
- cell proliferation without delivery vehicle (no oligofectamine) ([10]; listed as exogenous miR-200b): did not inhibit cell growth

Compound: U^FAU^FU^FCAGGAAGGU^FGU^FU^FACU^FU^FAA (UAUUCAGGAAGGUGUUACUUAA; RNA, [5FU] at 1, 3, 4, 13, 15, 16, 19, 20, backbone not given here) [modified miR-506, miR-506 in which all (8) U bases are replaced by 5-fluorouracil]
- cell proliferation, dose dependence [1]: inhibited in a dose dependent manner
- cell proliferation, dose dependence [2]: inhibited in a dose dependent manner
- lung cancer cell proliferation [3]: inhibited
- pancreatic cancer cell proliferation [4]: inhibited
- gastric cancer cell proliferation [5]: inhibited
- breast cancer cell proliferation [6]: inhibited
- leukemia cancer cell proliferation [7]: inhibited
- leukemia cancer cell proliferation, dose dependence [8]: inhibited in a dose dependent manner

Compound: AU^FCCU^FU^FGCUAU^FCU^FGGGU^FGCU^FA (AUCCUUGCUAUCUGGGUGCUA; RNA, [5FU] at 2, 5, 6, 11, 13, 17, 20, backbone not given here) [modified miR-502]
- cell proliferation, dose dependence [1]: inhibited in a dose dependent manner
- cell proliferation, dose dependence [2]: inhibited in a dose dependent manner
- lung cancer cell proliferation [3]: inhibited
- pancreatic cancer cell proliferation [4]: inhibited
- gastric cancer cell proliferation [5]: inhibited
- breast cancer cell proliferation [6]: inhibited
- leukemia cancer cell proliferation [7]: inhibited
- leukemia cancer cell proliferation, dose dependence [8]: inhibited in a dose dependent manner

Compound: CAGU^FGGUUUUACCCU^FAUGGU^FAG (CAGUGGUUUUACCCUAUGGUAG; RNA, [5FU] at 4, 15, 20, backbone not given here) [modified miR-140 [SEQ ID NO. 9], miR-140 in which certain (3) U bases are replaced by 5-fluorouracil]
- inhibition of colon cancer cell proliferation [9]: increased ability to inhibit colorectal cancer cell proliferation

Compound: U^FAAU^FACU^FGCCGGGU^FAAU^FGAU^FGGA [modified miR-200c]
- cell proliferation, dose dependence [1]: inhibited in a dose dependent manner
- cell proliferation, dose dependence [2]: inhibited in a dose dependent manner
- lung cancer cell proliferation [3]: inhibited
- pancreatic cancer cell proliferation [4]: inhibited
- gastric cancer cell proliferation [5]: inhibited
- breast cancer cell proliferation [6]: inhibited
- leukemia cancer cell proliferation [7]: inhibited
- leukemia cancer cell proliferation, dose dependence [8]: inhibited in a dose dependent manner

Compound: O=c1[nH]cc(F)c(=O)[nH]1 [5-FU, 5-fluoro-1H-pyrimidine-2,4-dione, reference compound]
- effect on tumor stem cell viability [11]: minimal effect
